According to patent US12403144B2, “HECT E3 ligase inhibitors and uses thereof” (IFOM FONDAZIONE ISTITUTO FIRC DI ONCOLOGIA MOLECOLARE, priority 2019, dated 2025):

Biological target: T1, HECT domain of NEDD4 (Homo sapiens, UniProt P46934)
T1 construct: crystal structure of the HECT domain of NEDD4 in complex with compound 12; made in house
T1 sequence (P46934 519-900 isoform P46934-4 limits assumed): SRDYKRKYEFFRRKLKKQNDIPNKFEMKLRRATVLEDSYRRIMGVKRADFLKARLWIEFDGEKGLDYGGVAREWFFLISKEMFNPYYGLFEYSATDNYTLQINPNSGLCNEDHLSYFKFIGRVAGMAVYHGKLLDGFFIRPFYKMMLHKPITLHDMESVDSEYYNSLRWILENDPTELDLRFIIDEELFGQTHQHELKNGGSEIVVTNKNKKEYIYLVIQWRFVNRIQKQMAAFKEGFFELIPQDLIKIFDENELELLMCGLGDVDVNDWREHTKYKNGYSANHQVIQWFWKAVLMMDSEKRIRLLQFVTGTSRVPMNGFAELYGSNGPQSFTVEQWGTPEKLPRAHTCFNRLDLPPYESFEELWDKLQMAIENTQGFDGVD
Assay: X-Ray crystal structure of the HECT domain of NEDD4 in complex with compound
Format: binding
Conditions: crystal soaking; thiol group of Cys627 attacks the α,β-unsaturated ester
Source text: FIG. 2: Structure of NEDD4 HECT in complex with compound 12. a. Compound 12 (dark grey sticks representation) binding to the HECT of NEDD4 (light grey), with a Fo-Fc map, calculated omitting the ligand, contoured at 2.5α level (represented as a grey mesh). b. Details of ligand binding: compound 12 and covalently or hydrogen-bonded NEDD4 residues are in ball-and-stick representation, hydrogen bond is shown as dotted line; spoked arcs represent protein residues making nonbonded contacts with the ligand.
FIG. 3: Structure of apo NEDD4 HECT superimposed with the one of the complex HECT-compound 12. Changes in the HECT structure upon compound 12 binding. Apo-HECT (pdb entry 2xbf, version 1.2, 13 Jul. 2011) depicted as dark grey ribbon; complex depicted as light grey ribbon. Side chains of residues Glu554 and Tyr634, and to a less extent those of Tyr604 and Tyr605, as well as main and side chain of residue Cys627 (covalently bound to the inhibitor) are rearranged upon inhibitor binding.
The inventors obtained by X-Ray the crystal structure of the HECT domain of NEDD4 in complex with compound 12. […]

In the case of CCOC(=O)/C=C/CNCCCCN1c2ccccc2CCc2ccc(Cl)cc21.O=C(O)/C=C\C(=O)O [Compound 12, Ethyl (E)-4-[4-(3-chloro-10,11-dihydro-5H-dibenzo[b,f]azepin-5-yl)butylamino]but-2-enoate maleate], the “binding mode in crystal structure of NEDD4 HECT complex” value is reported as “covalent link to the protein”.
